Source: US8642629B2, “Naphthylacetic acids” (Hoffmann-La Roche Inc., priority 2008, dated 2014)

biological target: T1, human CRTH2 (Homo sapiens, UniProt Q9Y5Y4); test: Calcium Flux Assay Using Fluorometric Imaging Plate Reader (FLIPR); assay type: cell-based; conditions: CHO-K1 cells transfected with G-alpha 16 and human CRTH2; inhibition of ligand (DK-PGD2) response
T1 construct: expressed in transfected cells; host or cells: CHO-K1
T1 sequence (Q9Y5Y4 1-395): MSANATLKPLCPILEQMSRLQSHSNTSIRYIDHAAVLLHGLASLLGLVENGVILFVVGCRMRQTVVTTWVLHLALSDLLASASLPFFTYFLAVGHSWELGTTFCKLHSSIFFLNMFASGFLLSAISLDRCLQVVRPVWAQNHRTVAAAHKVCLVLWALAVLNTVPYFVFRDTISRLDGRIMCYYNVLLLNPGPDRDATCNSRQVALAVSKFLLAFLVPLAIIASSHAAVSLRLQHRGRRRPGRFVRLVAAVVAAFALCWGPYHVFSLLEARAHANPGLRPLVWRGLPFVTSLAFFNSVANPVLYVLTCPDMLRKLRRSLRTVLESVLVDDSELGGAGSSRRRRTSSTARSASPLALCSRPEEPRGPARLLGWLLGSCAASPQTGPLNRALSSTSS
Description: CHO-K1 cells previously transfected with G-alpha 16 were subsequently transfected with the human CRTH2 receptor and the neomycin resistance gene. Following selection in 800 μg/mL G418 (geneticin), individual clones were assayed for their receptor expression based on staining with an anti human CRTH2 IgG, followed by assaying for their response to 13,14-dihydro-15-keto Prostaglandin D2 (DK-PDG2) (ligand) in the Ca^2+ Flux assay. Positive clones were then cloned by limiting dilution cloning. […] Cells were harvested with trypsin-EDTA (trypsin-ethylenediaminetetraacetic acid) and counted using ViaCount® reagent (from Guava Technologies, Inc. which contains two DNA-binding dyes that enable the reagent user to distinguish between viable and non-viable cells). […]
After incubation, both the cell and “assay plate” plates were brought to the fluorometric imaging plate reader (FLIPR®) and 20 μL of the diluted compounds were transferred to the cell plates by the FLIPR®. […] During the assay, fluorescence readings were taken simultaneously from all 384 wells of the cell plate every 1.5 seconds. Five readings were taken to establish a stable baseline, then 20 μL of sample was rapidly (30 μL/sec) and simultaneously added to each well of the cell plate. The fluorescence was continuously monitored before, during and after sample addition for a total elapsed time of 100 seconds. […]

IC50	Compound
4200 nM	CCS(=O)(=O)c1ccc(Oc2c(C)c(CCC(=O)O)cc3ccc(F)cc23)cc1 [Example 7-1, 3-[4-(4-ethanesulfonyl-phenoxy)-6-fluoro-3-methyl-naphthalen-2-yl]-propionic acid]
5000 nM	CCS(=O)(=O)c1ccc(Oc2cc(CC(=O)O)cc3ccc(F)cc23)cc1 [Example 1-1, [4-(4-ethanesulfonyl-phenoxy)-6-fluoro-naphthalen-2-yl]-acetic acid]

biological target: T1, human CRTH2; test: Human CRTH2 Receptor Binding Assay (whole cell, [3H]ramatroban competition); conditions: CHO-K1 cells expressing human CRTH2 and G-alpha16; 20 nM [3H]ramatroban; 1 hour, room temperature
Procedure, shortened: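 Whole CHO-K1 cells stably expressing human CRTH2 and G-alpha16 were incubated with 20 nM [3H]ramatroban and compound for 1 h at room temperature in PBS with 10 mM MgCl2 and 0.06% BSA, then filtered and counted. Non-specific binding was defined with 10 μM 15(R)-15-methyl PGD2, and IC50 was fitted by 4-parameter logistic from 7 concentrations.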

Compound	IC50
CC(C)S(=O)(=O)c1ccc(Oc2cc(CC(=O)O)cc3ccc(F)cc23)cc1 [Example 1-4, {6-fluoro-4-[4-(propane-2-sulfonyl)-phenoxy]-naphthalen-2-yl}-acetic acid]	6.7 nM
Cc1c(CC(=O)O)cc2ccc(F)cc2c1Oc1ccc(S(C)(=O)=O)c(F)c1 [Example 2-16, [6-fluoro-4-(3-fluoro-4-methanesulfonyl-phenoxy)-3-methyl-naphthalen-2-yl]-acetic acid]	3.4 nM
CCS(=O)(=O)c1ccc(Oc2cc(CC(=O)O)cc3ccc(F)cc23)cc1 [Example 1-1, [4-(4-ethanesulfonyl-phenoxy)-6-fluoro-naphthalen-2-yl]-acetic acid]	2.3 nM
Cc1c(CC(=O)O)cc2ccc(F)cc2c1Oc1ccc(S(=O)(=O)N(C)C)cc1 [Example 2-37, [4-(4-dimethylsulfamoyl-phenoxy)-6-fluoro-3-methyl-naphthalen-2-yl]-acetic acid]	1.9 nM
CS(=O)(=O)c1ccc([S+]([O-])c2cc(CC(=O)O)cc3ccc(F)cc23)cc1 (centres unmarked) [Example 10-1, [6-fluoro-4-(4-methanesulfonyl-benzenesulfinyl)-naphthalen-2-yl]-acetic acid]	10.3 nM
Cc1c(CC(=O)O)cc2ccc(F)cc2c1Oc1ccc(S(=O)(=O)N2CCN(C)CC2)cc1 [Example 2-41, {6-fluoro-3-methyl-4-[4-(4-methyl-piperazine-1-sulfonyl)-phenoxy]-naphthalen-2-yl}-acetic acid]	1.7 nM
Cc1c(CC(=O)O)cc2ccc(F)cc2c1Oc1ccc(S(C)(=O)=O)c(Cl)c1 [Example 2-11, [4-(3-chloro-4-methanesulfonyl-phenoxy)-6-fluoro-3-methyl-naphthalen-2-yl]-acetic acid]	3 nM
CS(=O)(=O)c1ccc(Sc2cc(CC(=O)O)cc3ccc(F)cc23)cc1 [Example 9-1, [6-fluoro-4-(4-methanesulfonyl-phenylsulfanyl)-naphthalen-2-yl]-acetic acid]	7.5 nM
Cc1c(CC(=O)O)cc2ccc(F)cc2c1Oc1ccc(S(=O)(=O)c2ccccc2)cc1 [Example 2-28, [4-(4-benzenesulfonyl-phenoxy)-6-fluoro-3-methyl-naphthalen-2-yl]-acetic acid]	5 nM

Other lines, results leading:

IC50	Compound
130 nM	CCS(=O)(=O)c1ccc(Oc2c(C)c(CCC(=O)O)cc3ccc(F)cc23)cc1 [Example 7-1, 3-[4-(4-ethanesulfonyl-phenoxy)-6-fluoro-3-methyl-naphthalen-2-yl]-propionic acid]
12.4 nM	CCS(=O)(=O)c1ccc(Oc2c(C)c(CC(=O)O)cc3ccc(F)cc23)cc1Cl [Example 2-19, [4-(3-chloro-4-ethanesulfonyl-phenoxy)-6-fluoro-3-methyl-naphthalen-2-yl]-acetic acid]
0.9 nM	Cc1c(CC(=O)O)cc2ccc(F)cc2c1Oc1ccc(S(C)(=O)=O)cn1 [Example 2-32, [6-fluoro-4-(5-methanesulfonyl-pyridin-2-yloxy)-3-methyl-naphthalen-2-yl]-acetic acid]
7.5 nM	Cc1cc(S(C)(=O)=O)ccc1Oc1c(C)c(CC(=O)O)cc2ccc(F)cc12 [Example 2-3, [6-fluoro-4-(4-methanesulfonyl-2-methyl-phenoxy)-3-methyl-naphthalen-2-yl]-acetic acid]
32.1 nM	CCS(=O)(=O)c1ccc(Oc2cc(CC(=O)O)c(C)c3ccc(F)cc23)nc1 [Example 6-1, [4-(5-ethanesulfonyl-pyridin-2-yloxy)-6-fluoro-1-methyl-naphthalen-2-yl]-acetic acid]
2.8 nM	CCS(=O)(=O)c1cnc(Oc2c(C)c(CC(=O)O)cc3ccc(F)cc23)c(C2CC2)c1 [Example 21-1, [4-(3-Cyclopropyl-5-ethanesulfonyl-pyridin-2-yloxy)-6-fluoro-3-methyl-naphthalen-2-yl]-acetic acid]
